Assay results: patent US20250051319A1 (AUGUSTINE THERAPEUTICS, priority 2021, published 2025)

Assays:
[1] = target: catalytic domain 2 (CD2) of HDAC6 (Homo sapiens (Human), UniProt Q9UBN7); test: Cellular target engagement assay - NanoBRET; format: cell-based; conditions: NanoLuc-HDAC6(CD2) in HEK293T cells, 2 hours, read-out: IC50 (HDAC6(CD2) interaction)
[2] = target: T1, human full-length recombinant HDAC6 (Homo sapiens (Human), UniProt Q9UBN7); test: HDAC6 enzymatic activity assay (Reaction Biology Corporation, RHKKAc fluorogenic peptide); format: biochemical; conditions: Reaction Biology Corporation protocol, RHKKAc fluorogenic peptide 10 μM; read-out: HDAC6 biochem
T1 sequence (Q9UBN7 whole entry): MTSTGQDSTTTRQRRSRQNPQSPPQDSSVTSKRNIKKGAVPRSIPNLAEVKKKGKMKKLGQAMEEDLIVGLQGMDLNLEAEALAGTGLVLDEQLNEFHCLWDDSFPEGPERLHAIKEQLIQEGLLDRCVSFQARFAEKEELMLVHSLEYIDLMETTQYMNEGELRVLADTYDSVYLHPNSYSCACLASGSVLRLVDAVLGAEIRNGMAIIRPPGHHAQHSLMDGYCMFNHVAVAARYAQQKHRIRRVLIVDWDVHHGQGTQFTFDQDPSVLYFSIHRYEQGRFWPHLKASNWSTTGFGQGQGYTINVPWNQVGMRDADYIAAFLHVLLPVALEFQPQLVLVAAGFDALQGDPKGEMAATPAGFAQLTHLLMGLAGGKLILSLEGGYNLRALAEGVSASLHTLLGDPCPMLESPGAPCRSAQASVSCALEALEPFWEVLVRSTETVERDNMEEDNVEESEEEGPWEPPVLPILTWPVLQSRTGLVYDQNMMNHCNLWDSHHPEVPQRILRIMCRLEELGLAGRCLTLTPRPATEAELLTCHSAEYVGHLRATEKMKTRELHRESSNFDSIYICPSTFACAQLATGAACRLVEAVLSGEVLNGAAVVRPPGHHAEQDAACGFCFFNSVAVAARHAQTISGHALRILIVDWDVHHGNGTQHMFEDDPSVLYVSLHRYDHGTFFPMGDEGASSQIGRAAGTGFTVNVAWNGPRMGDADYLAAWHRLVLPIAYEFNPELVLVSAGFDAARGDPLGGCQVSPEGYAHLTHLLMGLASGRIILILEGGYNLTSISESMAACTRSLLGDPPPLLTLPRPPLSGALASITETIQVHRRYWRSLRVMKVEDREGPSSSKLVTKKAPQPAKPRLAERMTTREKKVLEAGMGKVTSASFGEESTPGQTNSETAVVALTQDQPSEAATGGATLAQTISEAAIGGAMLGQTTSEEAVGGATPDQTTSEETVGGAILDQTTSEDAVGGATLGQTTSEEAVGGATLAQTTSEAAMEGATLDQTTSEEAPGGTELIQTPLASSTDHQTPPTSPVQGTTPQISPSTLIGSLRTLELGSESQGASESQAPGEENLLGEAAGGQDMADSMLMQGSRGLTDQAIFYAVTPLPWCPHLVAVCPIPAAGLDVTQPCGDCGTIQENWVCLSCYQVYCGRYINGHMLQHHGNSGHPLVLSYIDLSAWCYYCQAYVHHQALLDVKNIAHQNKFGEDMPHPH
Method: (§1) Dose response testing of HDAC6 and HDAC 1 were run at Reaction Biology Corporation (RBC). Inhibition of HDAC enzymes was performed using N-terminal GST tagged human full-length recombinant HDAC6 (H88-30G, SignalChem) and C-terminal FLAG His tag human full-length recombinant HDAC1 produced in insect cells (KDA-21-365, RBC). Enzyme reactions were run in 50 mM Tris-HCl, pH8.0, 137 mM NaCl, 2.7 mM KCl, and 1 mM MgCl2 with 1 mg/ml BSA, 1% DMSO freshly added. 2× enzyme was delivered in the wells of the reaction plate except for the “no enzyme” control wells. In the latter, buffer was added. Compounds in 100% DMSO were delved into the enzyme mixture by acoustic technology (Echo550). Plates are spun down and compounds were incubation with the enzyme for 10 min at room temperature. 2× Fluorogenic peptide from p53 residues 379-382 (RHKKAc, 10 μM final concentration) was added in all wells to initiate the reaction, followed by 1 h incubation at 30° C. Developer containing Trichostatin A was added to stop the reaction and generate fluorescent color. A kinetic measurement was carried out for 20 min with 5 min interval on the Envision plate reader (Perkin Elmer, Ex/Em=360/460). End point reading i.e., plateau of the development reaction was used for analysis. Data was reported by RBC as percentage enzyme activity. Percentage inhibition was calculated by subtracting percentage enzyme activity from 100. IC50 values were calculated using GraphPad Prism 9 based on the log(inhibitor) vs. response—Variable slope (four parameters) equation.

[3] = target: T2, human full-length recombinant HDAC1 (Homo sapiens (Human), UniProt Q13547); test: HDAC1 enzymatic activity assay (Reaction Biology Corporation, RHKKAc fluorogenic peptide); format: biochemical; conditions: Reaction Biology Corporation protocol, RHKKAc fluorogenic peptide 10 μM; read-out: HDAC1 biochem
T2 sequence (Q13547 whole entry): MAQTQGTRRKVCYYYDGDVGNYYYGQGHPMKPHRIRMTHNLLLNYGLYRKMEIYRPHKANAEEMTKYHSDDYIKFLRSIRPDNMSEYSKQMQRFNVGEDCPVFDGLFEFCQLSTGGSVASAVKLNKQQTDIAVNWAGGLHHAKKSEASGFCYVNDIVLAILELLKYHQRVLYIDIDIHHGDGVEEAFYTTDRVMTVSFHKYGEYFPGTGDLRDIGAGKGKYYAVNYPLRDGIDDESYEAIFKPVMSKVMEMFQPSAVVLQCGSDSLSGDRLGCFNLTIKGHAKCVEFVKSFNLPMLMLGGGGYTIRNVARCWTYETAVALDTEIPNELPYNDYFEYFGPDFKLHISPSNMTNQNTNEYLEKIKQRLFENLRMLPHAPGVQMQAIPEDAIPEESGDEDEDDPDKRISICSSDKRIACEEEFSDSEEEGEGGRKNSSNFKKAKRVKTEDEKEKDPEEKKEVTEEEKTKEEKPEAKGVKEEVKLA
Method: as §1

[4] = target: T1, human full-length recombinant HDAC6; test: HDAC6 enzymatic activity assay (alternative protocol, Ac-Gly-Ala-Lys(Ac)-AMC); format: biochemical; conditions: 5 nM enzyme, read-out: HDAC6 biochem
Method: (§2) Inhibition of HDAC enzymes was performed in 384-well plate format using human full-length recombinant HDAC1 and HDAC6, isolated from a baculovirus expression system in Sf9 cells (BPS Bioscience). Reaction buffer for HDAC1 contained 50 mM Tris HCl pH 8.0, 137 mM NaCl, 2.7 mM KCl, 1 mM MgCl2, 0.1 mg/mL BSA, and reaction buffer for HDAC6 contained 50 mM Tris/HCl, pH 8.0, 137 mM NaCl, 2.7 mM KCl, 250 μM EDTA, 1 mM DTT, 0.1 mg/mL BSA. Compounds (dissolved in 100% DMSO) or DMSO (vehicle) were diluted in assay buffer at 3× final assay concentration and then added to assay plates. SAHA ([…]) was used as a positive control. 3× final assay concentration of recombinant enzymes (final assay concentration is 4 nM and 5 nM for HDAC1 and HDAC6, respectively) were preincubated for 10 minutes with test compounds at room temperature. Afterwards, 3× final assay concentration of an acetylated fluorogenic peptide (Ac-Gly-Ala-Lys(Ac))-AMC, Bachem; final assay concentration is 12 µM and 40 µM for HDAC1 and HDAC6, respectively) was added to assay plate, allowing deacetylase reactions to incubate for 60 minutes at room temperature. The developer reagent containing 5 μM SAHA and 50 μM trypsin was added to stop the deacetylase reaction and generate AMNC-fluorescence. 15 minutes after addition of developer reagent, endpoint measurements were taken using CLARIOstar (BMG Labtech) plate reader (excitation/emission: 360/450). Fluorescence signals were normalized for each plate using GraphPad Prism software: reaction HDAC-substrate in presence of DMSO was set to 100% while reaction HDAC-substrate in presence of 10 μM SAHA was set to 0%.

[5] = target: T2, human full-length recombinant HDAC1; test: HDAC1 enzymatic activity assay (alternative protocol, Ac-Gly-Ala-Lys(Ac)-AMC); format: biochemical; conditions: 4 nM enzyme, read-out: HDAC1 biochem
Method: as §2

Sequence of catalytic domain 2 (CD2) of HDAC6 (Q9UBN7 482-800): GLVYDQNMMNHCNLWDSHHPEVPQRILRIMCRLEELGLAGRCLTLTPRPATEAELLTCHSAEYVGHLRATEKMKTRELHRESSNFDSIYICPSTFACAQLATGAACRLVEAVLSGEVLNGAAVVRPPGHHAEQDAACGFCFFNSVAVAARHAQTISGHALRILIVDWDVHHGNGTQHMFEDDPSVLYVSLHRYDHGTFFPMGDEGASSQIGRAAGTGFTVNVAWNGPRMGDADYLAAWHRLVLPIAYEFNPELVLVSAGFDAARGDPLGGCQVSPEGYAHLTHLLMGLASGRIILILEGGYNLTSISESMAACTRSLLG

| SMILES | IC50 [1] | IC50 [2] | IC50 [3] | IC50 [4] | IC50 [5] |
| --- | --- | --- | --- | --- | --- |
| O=C(CO)NCc1ccc(C(=O)CSc2nc3ncc(C(F)(F)F)cc3o2)s1 [Compound 118, 2-hydroxy-N-((5-(2-((6-(trifluoromethyl)oxazolo[4,5-b]157yrrolid-2-yl)thio)acetyl)thiophen-2-yl)methyl)acetamide] | ≤ 100 nM | ≤ 100 nM | 500 to 1000 nM | – | – |
| COCCn1ncc2c(SCC(=O)c3ccc(CNC(=O)CO)s3)nc(C(F)(F)F)nc21 [Compound 125, 2-hydroxy-N-((5-(2-((1-(2-methoxyethyl)-6-(trifluoromethyl)-1H-pyrazolo[3,4-d]pyrimidin-4-yl)thio)acetyl)thiophen-2-yl)methyl)acetamide] | ≤ 100 nM | ≤ 100 nM | > 10000 nM | – | – |
| O=C(CO)NCc1ccc(C(=O)CSc2nc3nc(C(F)(F)F)ccc3o2)s1 [Compound 72, 2-hydroxy-N-((5-(2-((5-(trifluoromethyl)oxazolo[4,5-b]156yrrolid-2-yl)thio)acetyl)thiophen-2-yl)methyl)acetamide] | ≤ 100 nM | ≤ 100 nM | 500 to 1000 nM | – | – |
| Cn1cc2c(SCC(=O)c3ccc(CNC(=O)CO)s3)nc(C(F)F)nc2n1 [Compound 69, N-((5-(2-((6-(difluoromethyl)-2-methyl-2H-pyrazolo[3,4-d]pyrimidin-4-yl)thio)acetyl)thiophen-2-yl)methyl)-2-hydroxyacetamide] | 100 to 500 nM | ≤ 100 nM | – | – | – |
| O=C(CSc1nc(C(F)(F)F)nc2ncccc12)c1ccc(CNC(=O)C2CC2(F)F)s1 (stereo not drawn) [Compound 114, 2,2-difluoro-N-((5-(2-((2-(trifluoromethyl)pyrido[2,3-d]pyrimidin-4-yl)thio)acetyl)thiophen-2-yl)methyl)cyclopropane-1-carboxamide] | ≤ 100 nM | ≤ 100 nM | > 10000 nM | – | – |
| COc1ccc2nc(C)nc(SCC(=O)c3ccc(CN(C)C(=O)CO)s3)c2c1 [Compound 109, 2-hydroxy-N-((5-(2-((6-methoxy-2-methylquinazolin-4-yl)thio)acetyl)thiophen-2-yl)methyl)-N-methylacetamide] | 500 to 1000 nM | ≤ 100 nM | – | – | – |
| COc1cc2c(SCC(=O)c3ccc(CNC(=O)CO)s3)nc(C)nc2cc1F [Compound 75, N-((5-(2-((7-fluoro-6-methoxy-2-methylquinazolin-4-yl)thio)acetyl)thiophen-2-yl)methyl)-2-hydroxyacetamide] | – | – | > 10000 nM | – | – |
| CN(Cc1ccc(C(=O)CSc2nc(C(F)(F)F)nc3nn(C)cc23)s1)C(=O)CO [Compound 116, 2-hydroxy-N-methyl-N-((5-(2-((2-methyl-6-(trifluoromethyl)-2H-pyrazolo[3,4-d]pyrimidin-4-yl)thio)acetyl)thiophen-2-yl)methyl)acetamide] | 100 to 500 nM | ≤ 100 nM | – | – | – |
| COc1ccc2nc(C)nc(SCC(=O)c3ccc(CNC(=O)CO)s3)c2c1F [Compound 158, N-((5-(2-((5-fluoro-6-methoxy-2-methylquinazolin-4-yl)thio)acetyl)thiophen-2-yl)methyl)-2-hydroxyacetamide] | ≤ 100 nM | ≤ 100 nM | – | – | – |
| COc1cc2c(SCC(=O)c3ccc(CNC(=O)CO)s3)nc(C(F)(F)F)nc2cn1 [Compound 154, 2-hydroxy-N-((5-(2-((6-methoxy-2-(trifluoromethyl)pyrido[3,4-d]pyrimidin-4-yl)thio)acetyl)thiophen-2-yl)methyl)acetamide] | ≤ 100 nM | ≤ 100 nM | – | – | – |
| COc1cc(F)c2nc(C)nc(SCC(=O)c3ccc(CNC(=O)CO)s3)c2c1 [Compound 108, N-((5-(2-((8-fluoro-6-methoxy-2-methylquinazolin-4-yl)thio)acetyl)thiophen-2-yl)methyl)-2-hydroxyacetamide] | 100 to 500 nM | ≤ 100 nM | – | – | – |
| Cc1nc(SCC(=O)c2ccc(CNC(=O)CO)s2)c2ncccc2n1 [Compound 153, 2-hydroxy-N-((5-(2-((2-methylpyrido[3,2-d]pyrimidin-4-yl)thio)acetyl)thiophen-2-yl)methyl)acetamide] | ≤ 100 nM | ≤ 100 nM | – | – | – |
| Cn1ncc2c(SCC(=O)c3ccc(CNS(C)(=O)=O)s3)ncnc21 [Compound 87] | 100 to 500 nM | – | – | ≤ 100 nM | > 10000 nM |

Second part, the compound after the results:

| IC50 [1] | IC50 [2] | IC50 [3] | IC50 [4] | IC50 [5] | SMILES |
| --- | --- | --- | --- | --- | --- |
| ≤ 100 nM | ≤ 100 nM | > 10000 nM | – | – | O=C(CSc1nc(C(F)(F)F)nc2ncccc12)c1ccc(CN2CCOCC2=O)s1 [Example 138, 4-((5-(2-((2-(trifluoromethyl)pyrido[2,3-d]pyrimidin-4-yl)thio)acetyl)thiophen-2-yl)methyl)morpholin-3-one] |
| ≤ 100 nM | ≤ 100 nM | – | – | – | COc1cc2c(SCC(=O)c3ccc(CN(C)C(=O)CO)s3)nc(C(F)(F)F)nc2cn1 [Compound 159, 2-hydroxy-N-((5-(2-((6-methoxy-2-(trifluoromethyl)pyrido[3,4-d]pyrimidin-4-yl)thio)acetyl)thiophen-2-yl)methyl)-N-methylacetamide] |
| ≤ 100 nM | ≤ 100 nM | – | – | – | COc1cnc2nc(C(F)F)nc(SCC(=O)c3ccc(CNC(=O)CO)s3)c2c1 [Compound 164, N-((5-(2-((2-(difluoromethyl)-6-methoxypyrido[2,3-d]pyrimidin-4-yl)thio)acetyl)thiophen-2-yl)methyl)-2-hydroxyacetamide] |
| ≤ 100 nM | ≤ 100 nM | – | – | – | CCOc1cnc2nc(C)nc(SCC(=O)c3ccc(CNC(=O)CO)s3)c2c1 [Compound 160, N-((5-(2-((6-ethoxy-2-methylpyrido[2,3-d]pyrimidin-4-yl)thio)acetyl)thiophen-2-yl)methyl)-2-hydroxyacetamide] |
| 100 to 500 nM | – | – | ≤ 100 nM | > 10000 nM | Cc1ccc2c(SCC(=O)c3ccc(CNC(=O)C(C)(C)C)s3)nc(C)nc2c1 [Example 11, N-((5-(2-((2,7-dimethylquinazolin-4-yl)thio)acetyl)thiophen-2-yl)methyl)pivalamide] |
| 100 to 500 nM | – | – | ≤ 100 nM | > 10000 nM | Cc1nc(SCC(=O)c2ccc(CNC(=O)C3CC3)s2)c2ccccc2n1 [Example 35, N-((5-(2-((2-methylquinazolin-4-yl)thio)acetyl)thiophen-2-yl)methyl)cyclopropanecarboxamide] |
| ≤ 100 nM | – | – | ≤ 100 nM | > 10000 nM | Cn1ncc2c(SCC(=O)c3ccc(CNC(=O)c4ccccc4)s3)ncnc21 [Example 30, N-((5-(2-((1-methyl-1H-pyrazolo[3,4-d]pyrimidin-4-yl)thio)acetyl)thiophen-2-yl)methyl)benzamide] |
| 100 to 500 nM | – | – | ≤ 100 nM | > 10000 nM | CN(C)c1nc(SCC(=O)c2ccc(CNC(=O)C(C)(C)C)s2)c2ccccc2n1 [Example 16, N-((5-(2-((2-(dimethylamino)quinazolin-4-yl)thio)acetyl)thiophen-2-yl)methyl)pivalamide] |
| 100 to 500 nM | – | – | ≤ 100 nM | > 10000 nM | CC(C)(C)C(=O)NCc1ccc(C(=O)CSc2nc(C(F)F)nc3ccccc23)s1 [Example 19, N-((5-(2-((2-(difluoromethyl)quinazolin-4-yl)thio)acetyl)thiophen-2-yl)methyl)pivalamide] |
| 1000 to 10000 nM | – | – | ≤ 100 nM | > 10000 nM | O=C(NCCc1ccc(C(=O)CSc2nc(C(F)(F)F)nc3ccccc23)s1)c1ccccc1 [Example 37, N-(2-(5-(2-((2-(trifluoromethyl)quinazolin-4-yl)thio)acetyl)thiophen-2-yl)ethyl)benzamide] |
